Experimental data: patent publication US6946462B2, “N-monoacylated derivatives of o-phenylenediamines, their analogs and their use as pharmaceutical agents” (Hoffmann-La Roche Inc., priority 2001, dated 2005)

Key:
[1] = target: T1, rec. HDAC-1 purified from HEK 293 cells (Homo sapiens, UniProt Q13547); assay: Assay for inhibition of histone deacetylase (HDAC), quenched peptide / Lys C fluorescence; assay type: biochemical; conditions: 10 concentrations starting at 30 uM, 90 min incubation
T1 construct: made in house; host or cells: HEK 293 cells
From the text: A) Assay for Inhibition of Histone Deacetylase (HDAC)
HDAC deacetylates lysines in histone H4. A 17 aa peptide with TAMRA at the C-terminus and QSY7 at the N-terminus was used as a substrate. Following deacetylation by HDAC the enzyme Lys C is able to cleave the peptide resulting in disappearence of the quench effect and a high signal. Inhibition of HDAC by compounds results in low signals because Lys C has no substrate for cleaving and the quench effect persists.
For dose response curves 10 concentrations were diluted starting at 30 uM. 10 ul compound dilution were put into each well of a 384 well plate. 10 ul HDAC (rec. HDAC-1 purified from HEK 293 cells; activity was assessed for each preparation) were added. 10 ul peptide was added (1 uM final concentration). After 90 min incubation at room temperature the reaction was stopped by addition of 20 ul test buffer including 3 ug/ml Lys C and 0.075% SDS. After overnight incubation the fluorescent signal of TAMRA was measured at absorption 544 nm, emission 590 nm by Victor 2.

[2] = test system: E-cadherin expression in A549; assay: E-cadherin upregulation assay (ELISA, with WST-1 proliferation in the same well); assay type: cell-based; conditions: A549 human lung carcinoma cells; % proliferation subtracted from % E-cadherin expression; 10 concentrations starting at 40 uM; read-out: E-cadherin upregulation EC50 [μM] (Assay B)
From the text: B) E-cadherin Upregulation Assay
E-cadherin as an adhesion molecule is important for connection of the cells and integrity of tissues. […] Upregulation of the protein in cells where there is insufficient E-cadherin is regarded as a marker for the differentiation of the tumor cell. This corresponds to leaving the undifferentiated tumor cell status.
The compounds described are able to upregulate expression of E-cadherin in A549. In parallel, the proliferation of the cells is examined. The activity of an E-cadherin upregulator is defined as an increase in E-cadherin expression determined by an ELISA. Cell proliferation is also determined by WST-1 in the same well.
The assay was performed in 384-well format. […] 5000 cells per well were seeded in culture medium with 10% FCS at day 1. At day 2 compounds in different concentrations starting at 40 uM were added at a final concentration of DMSO of 0.5%. At day 4, WST-1 reagent was added and absorption was measured after 45 min (450 nm/690 nm).
The medium was aspirated, 100 ul fixation solution was added per well and discarded after 30 min, followed by addition of 100 ul blocking solution. […] Absorption was measured at 405 nm.
% proliferation of cells is substracted from % E-cadherin expression resulting in Delta. The dose response curve resulting from 10 concentrations was calculated using XLfit. […]

[3] = test system: SW620 colon carcinoma cells; assay: SW620 colon carcinoma xenograft in nude mice, tumor volume; assay type: in vivo, Balb/C nu/nu-mice; conditions: oral, once daily, day 8 to day 27
Protocol: Female Balb/C nu/nu-mice(n=12 per group), aged 8-10 weeks, were subcutaneously injected with […] SW620 colon carcinoma cells. On day 6, animals with tumor volumes of about 200 mm^3 were randomly assigned to treatment groups. The test compound was administered as a fine suspension in 0.5% methylcellulose with an application volume of 10 ml/kg based on actual body weights. Oral treatment started on day 8 and continued through to day 27 on a once daily, 7 times per week treatment schedule.
The volume of the tumor was determined from the following equation:
Volume of a tumor=½×(major axis)×(minor axis)2

T1 sequence (Q13547 whole entry): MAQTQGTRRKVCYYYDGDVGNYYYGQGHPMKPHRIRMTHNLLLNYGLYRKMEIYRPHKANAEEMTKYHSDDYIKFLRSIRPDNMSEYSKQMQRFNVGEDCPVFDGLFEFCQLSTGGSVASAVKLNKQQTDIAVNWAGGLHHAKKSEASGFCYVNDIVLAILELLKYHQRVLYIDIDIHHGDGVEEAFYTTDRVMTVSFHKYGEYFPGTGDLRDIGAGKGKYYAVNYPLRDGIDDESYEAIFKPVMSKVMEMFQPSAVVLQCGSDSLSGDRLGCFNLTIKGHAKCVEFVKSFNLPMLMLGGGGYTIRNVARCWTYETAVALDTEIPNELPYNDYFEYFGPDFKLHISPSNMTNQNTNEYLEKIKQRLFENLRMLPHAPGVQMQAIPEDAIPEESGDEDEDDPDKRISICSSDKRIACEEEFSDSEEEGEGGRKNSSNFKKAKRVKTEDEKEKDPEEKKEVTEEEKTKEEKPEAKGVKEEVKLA

IC50 [1]: 11.1 µM | EC50 [2]: 5.9 µM
SMILES: Nc1ccccc1NC(=O)c1cscn1 [Compound 38, Thiazole-4-carboxylic acid (2-amino-phenyl)-amide]
Tumor volume (mm^3) ([3]; end of the study, female Balb/C nu/nu mice with s.c. SW620 tumors): 1029.0 mm^3 | % inhibition vs. control ([3]; tumor volume at the end of the study, SW620 xenograft): 53%
